Assay results taken from patent US11834470B2, “4-thioribose NAD analogues and methods of synthesizing and using the same” (University of Southern California, priority 2018, dated 2023).

Assays:
Format in all cases: biochemical
[1] = biological target: T1, Leuconostoc mesenteroides glucose-6-phosphate dehydrogenase (G6PDH) (Leuconostoc mesenteroides, UniProt P11411); experiment: substrate activity with redox enzyme G6PDH (UV 340 nm and HPLC); details: 0.5 mM compound, 5 mM D-glucose 6-phosphate; for HPLC analysis of reduction by L. mesenteroides G6PDH: 10 unit/ml G6PDH, 30 minutes, peaks confirmed by mass spectrometry
T1 construct: purchased Sigma-Aldrich (St. Louis, MO)
T1 sequence (P11411 whole entry): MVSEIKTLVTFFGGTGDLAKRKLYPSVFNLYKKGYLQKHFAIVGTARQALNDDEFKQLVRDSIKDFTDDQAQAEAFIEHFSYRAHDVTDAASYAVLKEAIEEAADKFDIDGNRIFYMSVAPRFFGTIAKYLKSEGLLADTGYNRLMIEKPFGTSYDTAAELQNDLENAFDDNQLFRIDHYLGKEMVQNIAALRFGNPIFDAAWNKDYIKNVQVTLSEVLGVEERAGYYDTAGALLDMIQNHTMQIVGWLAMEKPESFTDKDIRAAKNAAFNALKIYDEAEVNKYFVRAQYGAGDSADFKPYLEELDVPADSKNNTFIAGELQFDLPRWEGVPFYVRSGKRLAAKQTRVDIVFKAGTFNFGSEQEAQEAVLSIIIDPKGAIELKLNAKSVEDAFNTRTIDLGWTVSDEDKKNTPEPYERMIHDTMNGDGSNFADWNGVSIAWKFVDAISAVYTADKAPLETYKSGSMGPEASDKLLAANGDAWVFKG
Method: (§1) Bovine glutamate dehydrogenase (GDH) and Leuconostoc mesenteroides glucose-6-phosphate dehydrogenase (G6PDH) were purchased from Sigma-Aldrich (St. Louis, MO) and used for determining the substrate activities of NAD^+ and S-NAD^+. To examine substrate activity with bovine GDH, 0.1 mM NAD^+ or S-NAD^+ was incubated with 1 mM L-glutamate and 0.1 unit/ml GDH in buffer containing 2 mM DTT, 50 mM Tris, pH 7.5 for 15 minutes at room temperature. To determine substrate activity with G6PDH, 0.5 mM NAD^+ or S-NAD^+ was incubated with 5 mM D-glucose 6-phosphate and 0.01 unit/ml G6PDH in buffer containing 5 mM MgCl2, 50 mM Tris, pH 7.5 for 15 minutes at room temperature. Formation of NADH and S-NADH were monitored by UV absorbance at 340 nm under kinetic mode using a NanoDrop 2000C spectrophotometer (Thermo Scientific, MA).
(§2) To examine the bovine GDH-catalyzed reactions, 0.5 mM NAD^+ or S-NAD^+ was incubated with 2 mM L-glutamate and 20 unit/ml GDH in buffer containing 2 mM DTT, 50 mM Tris, pH 7.5 for 30 minutes at room temperature, followed by HPLC analysis with detection of UV absorbance at 340 nm. To evaluate the L. mesenteroides G6PDH-catalyzed reactions, 0.5 mM NAD^+ or S-NAD^+ was incubated with 5 mM D-glucose 6-phosphate and 10 unit/ml G6PDH in buffer containing 5 mM MgCl2, 50 mM Tris, pH 7.5 for 30 minutes at room temperature, followed by HPLC analysis with detection of UV absorbance at 340 nm. The HPLC method used for analysis of reactions by GDH and G6PDH was the same as described above.

[2] = biological target: T2, Bovine glutamate dehydrogenase (GDH) (Bos taurus, UniProt P00366); experiment: substrate activity with redox enzyme GDH (UV 340 nm and HPLC); details: for HPLC analysis of reduction by bovine GDH: 0.5 mM compound, 2 mM L-glutamate, 20 unit/ml GDH, 30 minutes, peaks confirmed by mass spectrometry
T2 construct: purchased Sigma-Aldrich (St. Louis, MO)
T2 sequence (P00366 58-558): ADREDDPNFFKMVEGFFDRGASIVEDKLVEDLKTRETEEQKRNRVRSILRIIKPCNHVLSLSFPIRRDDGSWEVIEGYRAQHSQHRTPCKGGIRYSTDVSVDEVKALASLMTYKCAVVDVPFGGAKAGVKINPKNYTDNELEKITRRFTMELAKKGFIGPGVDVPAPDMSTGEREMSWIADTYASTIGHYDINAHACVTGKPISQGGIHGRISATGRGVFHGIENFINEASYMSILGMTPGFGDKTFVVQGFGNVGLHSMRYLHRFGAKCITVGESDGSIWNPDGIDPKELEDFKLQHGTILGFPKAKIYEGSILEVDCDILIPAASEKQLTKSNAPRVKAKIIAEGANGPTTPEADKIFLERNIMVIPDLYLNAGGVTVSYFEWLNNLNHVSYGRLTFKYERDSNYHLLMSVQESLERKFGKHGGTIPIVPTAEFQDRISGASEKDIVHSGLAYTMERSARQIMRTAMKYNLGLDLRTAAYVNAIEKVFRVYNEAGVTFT
Method: as §1, §2

human CD38 [3] = biological target: T3, human CD38 (Homo sapiens, UniProt P28907, N100D/N164A/N209D/N219D); experiment: substrate activity with human CD38, overnight incubation, HPLC analysis; details: 1 mM compound, 13.4 nM recombinant human CD38, 50 mM MES pH 6.5, room temperature overnight
T3 construct: His6 (N, cleaved yes); TEV protease cleavage site (N, cleaved yes); made in house; host or cells: Expi293 cells, secreted, transient transfection (pFuse vector)
T3 sequence (P28907 45-300 N100D/N164A/N209D/N219D): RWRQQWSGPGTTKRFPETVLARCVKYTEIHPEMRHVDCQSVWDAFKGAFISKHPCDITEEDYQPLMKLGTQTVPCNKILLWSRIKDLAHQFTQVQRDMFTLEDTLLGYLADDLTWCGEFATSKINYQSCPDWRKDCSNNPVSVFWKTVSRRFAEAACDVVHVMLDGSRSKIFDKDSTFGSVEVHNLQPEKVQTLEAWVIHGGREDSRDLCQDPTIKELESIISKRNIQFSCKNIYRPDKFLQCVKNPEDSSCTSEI
Method: FIGS. 15A-15D: Activity of NAD^+ and S-NAD^+ for human CD38. HPLC analysis of substrate activities of NAD^+ (FIG. 15A-15B) and S-NAD^+ (FIG. 15C-15D) with human CD38 as measured by UV absorbance at 260 nm. 1 mM NAD^+ or S-NAD^+ was incubated without and with CD38 at RT overnight, followed by HPLC analysis.
1 mM S-NAD^+ and NAD^+ in 50 mM MES, pH 6.5 were incubated with 13.4 nM recombinant human CD38 for overnight at room temperature, followed HPLC analysis of the reaction mixtures. HPLC analysis was performed with a semipreparative C18 Kinetex column (5 μm, 100 Å, 150×10.0 mm, from Phenomenex Inc, Torrance, CA) using following method: mobile phase A: 0.1% formic acid (aq); mobile phase B: 0.1% formic acid in methanol; flow rate: 2.0 ml/min; 0-2 min: 0-4% B, 2-4 min: 4-10% B; 4-6 min: 10-20% B; 6-9 min: 20% B; 9-12 min: 20-50% B; and 12-14 min: 50-0% B.

human CD38 [4] = biological target: T3, human CD38; experiment: continuous fluorescence-based CD38 cyclase activity assay with NGD+ as substrate (cGDPR formation)
Method: Recombinant human CD38 (8 nM) was incubated with 50 μM NGD^+ in the presence of varied concentrations of S-NAD^+. CD38 cyclase activities were monitored on the basis of the formation of fluorescent cGDPR as measured at 410 nm.
NGD^+ (Sigma-Aldrich, MO) was used as a substrate to determine ADP-ribosyl cyclase activity of purified CD38, because cyclic GDP-ribose (cGDPR) product is characterized by distinctive UV absorbance at 295 nm and fluorescence emission at 410 nm (excitation at 300 nm).^5 To characterize kinetic parameters, reactions were initiated by additions of recombinant CD38 (8.3 nM final) into assay wells with various concentrations of NGD^+ in 20 mM MES, pH 6.5, followed by monitoring the reactions through fluorescence at 410 nm (excitation at 300 nm) to determine initial reaction rates. Inhibition activities of S-NAD^+ were determined by carried out enzymatic formation of cyclic GDP-ribose in the presence of S-NAD^+. […] All reactions were carried out in black 96-well plates and the resulting fluorescence was measured using a BioTek Synergy H1 Hybrid Multi-Mode Microplate Reader (BioTek, VT) in the kinetic mode. The Km of NGD^+ for CD38 was calculated by fitting data with Michaelis-Menten function implemented in GraphPad Prism (La Jolla, CA). […]

human NMNAT = biological target: T4, human NMNAT (Homo sapiens, UniProt Q9HAN9); experiment: enzymatic conversion by purified NRK1 and NMNAT1 with ATP, HPLC: NMNAT step; details: 6 mM ATP, 5 μM NRK1 and 5 μM NMNAT1, RT; relative to NMN
T4 construct: made in house; host or cells: E. coli BL21 (DE3), pET-28a(+)
T4 sequence (Q9HAN9 with tags, fused parts or gaps): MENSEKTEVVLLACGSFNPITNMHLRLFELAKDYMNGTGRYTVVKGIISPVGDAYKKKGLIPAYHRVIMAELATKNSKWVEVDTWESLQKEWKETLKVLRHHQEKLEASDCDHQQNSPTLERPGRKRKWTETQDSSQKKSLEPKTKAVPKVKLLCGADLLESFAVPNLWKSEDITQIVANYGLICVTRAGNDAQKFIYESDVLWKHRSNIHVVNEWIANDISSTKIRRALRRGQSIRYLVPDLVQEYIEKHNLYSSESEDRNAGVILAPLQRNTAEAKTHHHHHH
Method: (§3) FIGS. 4A-4D: HPLC analysis of enzymatic synthesis of S-NAD^+ by the purified NRK1 and NMNAT1 as measured by UV absorbance at 260 nm. 2 mM S—NR was incubated with 6 mM ATP and 5 μM NRK1 and 5 μM NMNAT1 at RT for 0 h (FIG. 4A), 0.5 h (FIG. 4B), 1 h (FIG. 4C), and 4 h (FIG. 4D), followed by HPLC analysis.
(§4) Purified S—NR (0.5 mg in the form of bromide salt) was incubated with 6 mM ATP, 5 uM of purified NRK1 and NMNAT1 at the final concentration of 2 mM at room temperature for overnight in the reaction buffer (50 mM Tris, 100 mM NaCl, 12 mM MgCl2, 1 mM DTT, and pH 7.5). After centrifugation at 4,000 g for 5 minutes, supernatants were analyzed by HPLC and the fraction containing S-NAD^+ (0.68 mg, 70%) were pooled and confirmed by both NMR and mass spectrometry. All analysis and purifications on HPLC were performed with a semipreparative C18 Kinetex column (5 μm, 100 Å, 150×10.0 mm, from Phenomenex Inc, Torrance, CA) using the following method, mobile phase A: 0.1% formic acid (aq); mobile phase B: 0.1% formic acid in methanol; flow rate: 2.0 ml/min; 0-2 min: 0-4% B, 2-4 min: 4-10% B; 4-6 min: 10-20% B; 6-9 min: 20% B; 9-12 min: 20-50% B; and 12-14 min: 50-0% B.
(§5) Human NRK1 and NMNAT1 were then expressed and purified from Escherichia coli (FIG. 1). In vitro biosynthesis of NAD^+ and S-NAD^+ from NR and S—NR, respectively, were carried out using purified NRK1 and NMNAT1. […]

human NRK = experiment: enzymatic conversion by purified NRK1 and NMNAT1 with ATP, HPLC: NRK step; details: 2 mM S-NR, 6 mM ATP, 5 μM NRK1 and 5 μM NMNAT1, RT; relative to NR
Method: as §3, §4, §5

Structure (SMILES) | HPLC analysis of reduction by L. mesenteroides G6PDH [1] | HPLC analysis of reduction by bovine GDH [2] | fate of compound after overnight reaction with CD38 (HPLC) (human CD38 [3]) | also measured
NC(=O)c1ccc[n+]([C@@H]2O[C@H](COP(=O)([O-])OP(=O)(O)OC[C@H]3O[C@@H](n4cnc5c(N)ncnc54)[C@H](O)[C@@H]3O)[C@@H](O)[C@H]2O)c1 [NAD^+, Nicotinamide adenine dinucleotide, reference compound] | enzyme-dependent formation of NADH and S-NADH peaks | enzyme-dependent formation of NADH and S-NADH peaks | completely consumed | 
NC(=O)c1ccc[n+]([C@@H]2O[C@H](COP(=O)([O-])OP(=O)(O)OC[C@H]3O[C@@H](n4cnc5c(=O)[nH]c(N)nc54)[C@H](O)[C@@H]3O)[C@@H](O)[C@H]2O)c1 [NGD^+, nicotinamide guanine dinucleotide, reference compound] |  |  |  | Km (human CD38 [4]; 8.3 nM recombinant CD38, 20 mM MES pH 6.5, fluorescence at 410 nm): 8.5 ± 0.6 µM
NC(=O)c1ccc[n+](C2SC(COP(=O)([O-])O)C(O)C2O)c1 (stereo not drawn) [S-NMN, 4′-thioribose nicotinamide mononucleotide] |  |  |  | effect of sulfur substitution on substrate activity for human NMNAT (human NMNAT): no effect
NC(=O)c1ccc[n+]([C@@H]2S[C@H](CO)[C@@H](O)[C@H]2O)c1.[Br-] [S—NR, 3-carbamoyl-1-((2R,3R,4S,5R)-3,4-dihydroxy-5-(hydroxymethyl)tetrahydrothiophen-2-yl)pyridin-1-ium] |  |  |  | effect of sulfur substitution on substrate activity for human NRK (human NRK): no effect
NC(=O)c1ccc[n+]([C@@H]2S[C@H](COP(=O)(O)OP(=O)([O-])OC[C@H]3O[C@@H](n4cnc5c(N)ncnc54)[C@H](O)[C@@H]3O)[C@@H](O)[C@H]2O)c1 (stereo in doubt) [S-NAD^+, 4′-thioribose NAD+] | enzyme-dependent formation of NADH and S-NADH peaks | enzyme-dependent formation of NADH and S-NADH peaks | still remained unchanged | reduction by L. mesenteroides G6PDH monitored by UV absorbance at 340 nm ([1]; 0.01 unit/ml G6PDH, 15 minutes, room temperature): characteristic increases of UV absorbance at 340 nm; reduction by bovine GDH monitored by UV absorbance at 340 nm ([2]; 0.1 mM compound, 1 mM L-glutamate, 0.1 unit/ml GDH, 15 minutes, room temperature): characteristic increases of UV absorbance at 340 nm; slow-onset inhibition of CD38 (human CD38 [4]; direct competition assays with extended incubation or preincubating CD38 with S-NAD+): no slow-onset inhibition was observed
